In paper PMC7673538 (PLoS Biology, 2020):
Where “and” joins values, the source holds several entries; their conditions need not be identical. Identical values can stand only once. Like-named read-outs stand apart in the source and are kept apart here.

What was measured:
HRV-A2 = test: microbe, parasite or virus in culture; type: cell-based, human rhinovirus
human DAT = target: T1, human DAT (Homo sapiens, UniProt Q01959); type: cell-based; conditions: for DAT, Mean (Figure 8B): Control = 100
T1 construct: expressed in transfected cells; host or cells: HEK293 (gift of Dr. Hoener, F. Hoffmann-La Roche)

PV-1 = test: microbe, parasite or virus in culture; type: cell-based, poliovirus 1
CV-A24v = test: microbe, parasite or virus in culture; type: cell-based, coxsackievirus A24v
CV-A24 = test: microbe, parasite or virus in culture; type: cell-based, coxsackievirus A24; conditions: Enterovirus C, CVA24, HeLa R19, read-out: EC50 CV-A24
HRV-B14 = test: microbe, parasite or virus in culture; type: cell-based, human rhinovirus
human SERT = target: T2, human SERT (Homo sapiens, UniProt P31645); type: cell-based; conditions: for SERT, Mean (Figure 8B): Control = 100.00; for SERT, Mean as % (Figure 8B): Control = 100%
T2 construct: expressed in transfected cells; host or cells: HEK293 (gift of Dr. Hoener, F. Hoffmann-La Roche)

[1] = test system: representative EVs and RVs; type: cell-based

T1 sequence (Q01959 whole entry): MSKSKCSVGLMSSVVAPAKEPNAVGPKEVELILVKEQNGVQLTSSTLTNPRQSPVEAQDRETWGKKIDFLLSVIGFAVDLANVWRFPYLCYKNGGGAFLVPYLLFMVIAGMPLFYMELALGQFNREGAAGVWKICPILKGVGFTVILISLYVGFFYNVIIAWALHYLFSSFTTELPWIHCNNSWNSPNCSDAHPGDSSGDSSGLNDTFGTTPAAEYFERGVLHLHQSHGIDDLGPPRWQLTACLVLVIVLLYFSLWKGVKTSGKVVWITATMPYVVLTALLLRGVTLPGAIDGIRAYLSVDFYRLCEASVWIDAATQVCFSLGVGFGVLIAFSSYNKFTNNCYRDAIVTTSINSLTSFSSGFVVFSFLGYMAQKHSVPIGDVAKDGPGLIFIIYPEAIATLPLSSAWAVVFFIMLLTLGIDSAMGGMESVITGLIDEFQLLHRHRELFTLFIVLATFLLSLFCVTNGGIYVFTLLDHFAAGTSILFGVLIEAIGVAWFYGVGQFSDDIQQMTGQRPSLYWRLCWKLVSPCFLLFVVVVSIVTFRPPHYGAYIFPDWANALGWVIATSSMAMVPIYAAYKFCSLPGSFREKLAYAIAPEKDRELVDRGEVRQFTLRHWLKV
T2 sequence (P31645 whole entry): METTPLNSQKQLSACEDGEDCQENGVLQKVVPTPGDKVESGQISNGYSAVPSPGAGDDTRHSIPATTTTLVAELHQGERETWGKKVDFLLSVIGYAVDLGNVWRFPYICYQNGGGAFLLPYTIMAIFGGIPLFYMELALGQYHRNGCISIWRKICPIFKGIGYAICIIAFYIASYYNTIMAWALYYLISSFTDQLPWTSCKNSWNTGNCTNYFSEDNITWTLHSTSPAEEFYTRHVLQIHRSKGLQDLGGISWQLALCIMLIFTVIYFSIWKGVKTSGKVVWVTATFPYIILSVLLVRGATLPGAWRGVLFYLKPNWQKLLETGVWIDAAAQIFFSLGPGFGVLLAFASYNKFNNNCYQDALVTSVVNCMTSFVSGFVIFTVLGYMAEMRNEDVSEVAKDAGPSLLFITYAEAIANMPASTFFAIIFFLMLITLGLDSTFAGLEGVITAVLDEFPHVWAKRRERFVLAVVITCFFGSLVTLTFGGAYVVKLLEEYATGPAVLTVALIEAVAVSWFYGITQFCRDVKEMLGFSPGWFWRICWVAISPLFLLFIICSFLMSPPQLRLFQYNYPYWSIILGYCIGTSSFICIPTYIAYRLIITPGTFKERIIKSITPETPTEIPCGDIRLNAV

O=C(c1cc[nH]c1)N(Cc1ccc(F)cc1)c1ccccc1 [Compound 12b, N-(4-Fluorobenzyl)-N-phenyl-1H-pyrrole-3-carboxamide]
EC50 (HRV-A2; Human rhinovirus sp., HRV2 / HRVA2, HeLa R19, read-out: Table in Figure 7A, HRV2, exp1-exp3): 2760 nM | EC50 (HRV-A2; read-out: Table in Figure 7A, HRV2, exp1-exp3): 3210 nM and 2280 nM | DAT, Mean (Figure 8B) (human DAT; 1µM): 98.697 | DAT, Mean as % (Figure 8B) (human DAT; 1µM, Control = 100%): 103% | DAT, Mean (Figure 8B) (human DAT; 100µM): 90.1253 | inhibition of DAT function (in words) (human DAT; HEK293 cells expressing human DAT, 1 μM or 100 μM): neither 12a, 19b, 19d, nor the combined compound 12b inhibited | Figure 7 dose-response raw data, PV-1 (triplicate values) (PV-1; Concentration 0.0046 µM): 11.045 and 11.5939 | Figure 7 dose-response raw data, PV-1 (triplicate values) (PV-1; Concentration 0.0137 µM): 11.045 and 11.5939 | Figure 7 dose-response raw data, PV-1 (triplicate values) (PV-1; Concentration 0.0412 µM): 11.045 and 11.8683 and 12.5543 | Figure 7 dose-response raw data, PV-1 (triplicate values) (PV-1; Concentration 0.1235 µM): 9.9474 and 11.3195 and 12.0055 | Figure 7 dose-response raw data, PV-1 (triplicate values) (PV-1; Concentration 0.3704 µM): 13.3775 and 12.0055 and 11.7311 | Figure 7 dose-response raw data, PV-1 (triplicate values) (PV-1; Concentration 1.1111 µM): 20.2378 and 15.8472 and 16.3961 | Figure 7 dose-response raw data, PV-1 (triplicate values) (PV-1; Concentration 3.3333 µM): 109.849 and 103.263 and 104.772 | Figure 7 dose-response raw data, PV-1 (triplicate values) (PV-1; Concentration 11.1111 µM): 100.535 and 102.561 and 105.184 | Figure 7 dose-response raw data, PV-1 (triplicate values) (PV-1; Concentration 33.3333 µM): 94.7887 and 93.7377 and 106.219 | Figure 7 dose-response raw data, PV-1 (triplicate values) (PV-1; Concentration 100 µM): 94.2632 and 96.1025 and 105.824 | EC50 (PV-1; Enterovirus C, HeLa R19, read-out: Table in Figure 7A, Polio, AVERAGE): 1390 nM | EC50 (PV-1; Enterovirus C, HeLa R19, read-out: Table in Figure 7A, Polio, exp1-exp3): 1760 nM | EC50 (PV-1; read-out: Table in Figure 7A, Polio, exp1-exp3): 1420 nM and 990 nM | Figure 7 dose-response raw data, CV-A24v (triplicate values) (CV-A24v; Concentration 0.0046 µM): 11.045 and 11.5939 | Figure 7 dose-response raw data, CV-A24v (triplicate values) (CV-A24v; Concentration 0.0137 µM): 14.0988 and 16.3593 and 16.4783 | Figure 7 dose-response raw data, CV-A24v (triplicate values) (CV-A24v; Concentration 0.0412 µM): 14.0988 and 16.3593 and 16.4783 | Figure 7 dose-response raw data, CV-A24v (triplicate values) (CV-A24v; Concentration 0.1235 µM): 14.8126 and 12.909 and 19.2147 | Figure 7 dose-response raw data, CV-A24v (triplicate values) (CV-A24v; Concentration 0.3704 µM): 14.8126 and 13.6228 and 22.1892 | Figure 7 dose-response raw data, CV-A24v (triplicate values) (CV-A24v; Concentration 1.1111 µM): 14.8126 and 13.6228 and 22.1892 | Figure 7 dose-response raw data, CV-A24v (triplicate values) (CV-A24v; Concentration 3.3333 µM): 106.3 and 102.374 and 110.232 | Figure 7 dose-response raw data, CV-A24v (triplicate values) (CV-A24v; Concentration 11.1111 µM): 105.473 and 108.334 and 112.487 | Figure 7 dose-response raw data, CV-A24v (triplicate values) (CV-A24v; Concentration 33.3333 µM): 98.3206 and 97.0611 and 97.1756 | Figure 7 dose-response raw data, CV-A24v (triplicate values) (CV-A24v; Concentration 100 µM): 82.2926 and 86.3728 and 89.8506 | EC50 (CV-A24v; Coxsackievirus, HeLa R19, read-out: Table in Figure 7A, CVA24v, AVERAGE): 1340 nM | EC50 (CV-A24v; Coxsackievirus, HeLa R19, read-out: Table in Figure 7A, CVA24v, exp1-exp3): 1110 nM | EC50 (CV-A24v; read-out: Table in Figure 7A, CVA24v, exp1-exp3): 1230 nM and 1670 nM | EC50 (CV-A24): 1330 ± 240 nM | Figure 7 dose-response raw data, HRV_B14 (triplicate values) (HRV-B14; Concentration 0.0046 µM): 15.2266 and 14.5606 | Figure 7 dose-response raw data, HRV_B14 (triplicate values) (HRV-B14; Concentration 0.0137 µM): 10.2522 and 17.3246 and 10.943 | Figure 7 dose-response raw data, HRV_B14 (triplicate values) (HRV-B14; Concentration 0.0412 µM): 15.2266 and 14.5606 and 17.3246 | Figure 7 dose-response raw data, HRV_B14 (triplicate values) (HRV-B14; Concentration 0.1235 µM): 106.02 and 106.455 and 105.786 | Figure 7 dose-response raw data, HRV_B14 (triplicate values) (HRV-B14; Concentration 0.3704 µM): 105.351 and 107.391 and 106.589 | Figure 7 dose-response raw data, HRV_B14 (triplicate values) (HRV-B14; Concentration 1.1111 µM): 98.3946 and 107.926 and 101.94 | Figure 7 dose-response raw data, HRV_B14 (triplicate values) (HRV-B14; Concentration 3.3333 µM): 99.5652 and 104.147 and 110.034 | Figure 7 dose-response raw data, HRV_B14 (triplicate values) (HRV-B14; Concentration 11.1111 µM): 98.3946 and 107.926 and 101.94 | Figure 7 dose-response raw data, HRV_B14 (triplicate values) (HRV-B14; Concentration 33.3333 µM): 99.2522 and 114.147 and 100.034 | Figure 7 dose-response raw data, HRV_B14 (triplicate values) (HRV-B14; Concentration 100 µM): 99.5652 and 104.147 and 100.034 | EC50 (HRV-B14; Human rhinovirus sp., HRV14 / HRVB14, HeLa R19, read-out: Table in Figure 7A, HRV14, AVERAGE): 95.3 nM | EC50 (HRV-B14; Human rhinovirus sp., HRV14 / HRVB14, HeLa R19, read-out: Table in Figure 7A, HRV14, exp1-exp3): 112 nM | EC50 (HRV-B14; Human rhinovirus sp., HRVB14, HeLa R19, read-out: EC50 HRV-B14): 95 ± 120 nM | EC50 (HRV-B14; read-out: Table in Figure 7A, HRV14, exp1-exp3): 90 nM and 84 nM | SERT, Mean (Figure 8B) (human SERT; 1µM): 88.76 | SERT, Mean as % (Figure 8B) (human SERT; 1µM): 89% | SERT, Mean (Figure 8B) (human SERT; 100µM): 102.47 | SERT, Mean as % (Figure 8B) (human SERT; 100µM): 102% | inhibition of SERT-mediated uptake (in words) (human SERT; HEK293 cells expressing human SERT, 1 and 100 μM): neither 12a, 19b, 19d, nor the combined compound 12b inhibited | spectrum of antiviral activity (in words) [1]: improved antiviral profile against all tested viruses
